Drawing on US8691757B2 (Bristol-Myers Squibb Company, priority 2011, dated 2014), this text covers EC50 for two compounds.

Assay [1] relates to HCV genotype 1a (H77 strain) replicon in HUH-7 cells. Kind of assay: HCV replicon luciferase reporter assay, genotype 1a. The format is cell-based. The note with it: Hepatitis C virus, 72 h, HCV genotype 1a replicon, 3 days incubation, Renilla luciferase, range classes. A digest of the protocol:
(§1)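 Stable HUH-7 replicon lines (1b Con1 with S1179I; 1a H77 with P1496L and S2204I) carrying Renilla luciferase were incubated 3 days at 37 °C with compound in 4% FCS, 0.5% DMSO. Luminescence was read after 2 h with 7.5 μM EnduRen, EC50 from four-parameter logistic fit; CC50 came from multiplexed Cell Titer-Blue (8 h).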

Assay [2] relates to HCV genotype 1b (Con1) replicon in HUH-7 cells. Put plainly: HCV replicon luciferase reporter assay, genotype 1b. Format: cell-based. The note with it: Hepatitis C virus, 72 h, HCV genotype 1b replicon, 3 days incubation, Renilla luciferase, range classes. Summed up: as §1

As for `C[C@@H]1CCC[C@@H](C)/C=C\[C@@H]2C[C@@]2(C(=O)NS(=O)(=O)C2CC2)NC(=O)[C@@H]2C[C@@H](Oc3nccc4ccccc34)CN2C(=O)[C@H]1NC(=O)OC(C)(C)C(F)(F)F` [Compound 34, 1,1,1-trifluoro-2-methylpropan-2-yl (2R,6S,7R,11R,13aS,14aR,16aS,Z)-14a-(cyclopropylsulfonylcarbamoyl)-2-(isoquinolin-1-yloxy)-7,11-dimethyl-5,16-dioxo-1,2,3,5,6,7,8,9,10,11,13a,14,14a,15,16,16a-hexadecahydrocyclopropa[e]pyrrolo[1,2-a][1,4]diazacyclopentadecin-6-ylcarbamate], the EC50 in assay [1] was in the range of 2.01 to 5 nM; in assay [2], 0.2 to 1 nM.
The matching figures for `COc1ccc2c(O[C@@H]3C[C@H]4C(=O)N[C@]5(C(=O)NS(=O)(=O)C6CC6)C[C@H]5/C=C\[C@H](C)CCC[C@@H](C)[C@H](NC(=O)OC(C)(C)C)C(=O)N4C3)ncc(OC)c2c1` [Compound 21, tert-butyl (2R,6S,7R,11R,13aS,14aR,16aS,Z)-14a-(cyclopropylsulfonylcarbamoyl)-2-(4,6-dimethoxyisoquinolin-1-yloxy)-7,11-dimethyl-5,16-dioxo-1,2,3,5,6,7,8,9,10,11,13a,14,14a,15,16,16a-hexadecahydrocyclopropa[e]pyrrolo[1,2-a][1,4]diazacyclopentadecin-6-ylcarbamate]: 1.01 to 2 nM and 0.2 to 1 nM.
